One block for each molecule: values may come before it. Square brackets hold non-standard residues; d marks the D form. Ends that are not written are not given here. * marks the point of attachment. Nle = CCCC[C@H](N)C(=O)O; For = O=C*
Columns and labels:
MEG-01 cells = assay: RT-PCR of FPR and FPRL-1 in MEG-01 cells; type: cell-based, human; settings: 10^−7 M PMA for 5 days
Method: To further confirm that platelets express human N-formyl peptide receptors (FPR), RT-PCR of RNA harvested from the megakaryocytic cell line MEG-01 was performed. […] Treatment of MEG-01 cells with phorbol 12-myristate 13-acetate (PMA) induced differentiation with production of platelet-like structures^36. RNA harvested from HL60 cells, a promyelocytic cell line that expresses both FPR and FPRL 1, is shown in lane 1 (RT included), lane 2 (RT excluded), and lane 3 (RNA excluded) (FIG. 2a). […] RT-PCR generated bands were confirmed to encode the FPR or FPRL1 by sequence analysis. FPR protein expression in platelets was shown by immunoblotting with FPR specific antibody.
Total RNA was isolated using Ultraspec RNA isolation system (Biotecx Laboratories Inc., Houston Tes.), according to the manufacturer's protocol. To confirm purity of the product RNA, absorption ratios at 260/280 nm were determined to be […] for all samples. The samples were adjusted to 200 ng/μl for reverse transcription and PCR according to absorption at 260 nm. Total RNA was reversed-transcribed using Thermoscript RT (GibcoBRL, Gaithersburg, Md.). Conditions for PCR amplification of the resulting first-strand DNA template involved preheating a mixture of Taq DNA polymerase (5 U/ml) (GibcoBRL), primers, cDNA, and PCR components to 95° C. for 5 min before amplification. […]

Hep-2 cells = assay: Induction of apoptosis in Hep-2 cells, scored by H-33342/SYTOX staining; type: cell-based; settings: 1 μM for 5 hours
Method: Hep-2-cells were grown in DMEM medium supplemented with 10% FCS. Before each experiment, the cells were washed and the media was replaced with serum-free DMEM. After adaptation to this medium, cells were exposed to repeated freeze/thaw or UV radiation (1000J) in a UV Stratalinker UV oven (Stratagene) to induce necrosis. To induce apoptosis, cells were treated with 1 μM staurosporine (STS) for 5 hours. After the treatments, the cells were placed into a tissue culture incubator overnight. The supernatant was collected and used for experimentation and the cells were stained with a mixture of the membrane permeant dye H-33342 (500 ng/ml) and the membrane impermeant dye SYTOX (500 nM) (Molecular Probes; Eugene, Oreg.). Necrotic (damaged plasma membrane; non-condensed nuclei) and apoptotic (intact plasma membrane; characteristically condensed or fragmented nuclei) cells were scored. Necrotic cells after UV radiation=84%. Apoptotic cells after STS treatment=80%.

human platelets [1] = assay: Intracellular free calcium in fura-2 loaded platelets; type: cell-based; settings: for calcium signal: thrombin-activated as well as non-activated platelets, 1 U thrombin, 10^−6 M peptide
Method: Washed platelets were activated with either 0 U or 1 U thrombin (Sigma) for 10 min at 37° C. Fura-2 loaded platelets were prepared by incubating the platelets, for 45 min with fura-2 acetoxymethyl ester at 37° C. The dye-loaded platelets were washed and resuspended in calcium-free HBSS standard solution. The cells were then transferred into quartz cuvettes (10^9 cells in 2 ml), which were placed in a model MS-III spectrofluorometer (Photon Technologies, Inc.; South Brunswick, N.J.) and continuously stirred at 37° C. Stimulants were added in a 2 μl volume at indicated time points. The ratios of fluorescence at excitation wavelengths 340 and 380 nm and emission wavelength at 510 nm were calculated using FeliX fluorescence analysis software (Photon Technology Instruments; London, Ontario, Canada). Representative traces from at least six independent experiments are shown.

[2] = target: T1, N-formyl peptide receptors on human platelets (Homo sapiens, UniProt P21462); assay: Flow cytometry of fluorescein-conjugated peptide binding to human platelets; settings: 10^−7 M peptide; platelets treated with 0, 0.001, 0.1 or 10 U thrombin
T1 construct: Platelet-rich plasma was prepared from whole blood by differential centrifugation; endogenous in cells
T1 sequence (P21462 1-350): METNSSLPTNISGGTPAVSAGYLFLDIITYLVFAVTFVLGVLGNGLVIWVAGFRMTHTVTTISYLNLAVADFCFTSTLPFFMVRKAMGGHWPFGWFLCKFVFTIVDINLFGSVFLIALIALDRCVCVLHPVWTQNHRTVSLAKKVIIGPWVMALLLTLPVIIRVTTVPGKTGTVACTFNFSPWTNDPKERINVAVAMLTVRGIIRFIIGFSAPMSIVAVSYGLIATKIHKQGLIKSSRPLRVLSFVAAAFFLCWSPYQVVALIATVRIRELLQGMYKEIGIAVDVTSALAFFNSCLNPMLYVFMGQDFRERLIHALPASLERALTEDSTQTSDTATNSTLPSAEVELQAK
Method: (§1) To test whether human platelets express N-formyl peptide receptors, the binding of identical fluorescein-conjugated peptides to human platelets was evaluated by flow cytometry, where one contained a formyl group N-formyl-Nle-Leu-Phe-Nle-Tyr-Lys (fNLFNYK-fl) (SEQ ID NO:1), and the other without a formyl group Nle-Leu-Phe-Nle-Tyr-Lys (NLFNYK-fl) (SEQ ID NO:2). […] However, with permeabilization of non-activated platelets, fluorescein staining of granule-like particles was detected within the interior of platelets (FIG. 1d). […] Differential interference contrast (DIC) imaging (FIG. 1g insert) confirmed the presence of platelets.
Platelet-rich plasma was prepared from whole blood by differential centrifugation at 800×g for 5 min at 22° C. The top two-thirds of the platelet-rich plasma was removed and washed in PBS containing 1% fetal bovine serum. Washed platelets were activated with 0, 0.001, 0.1 or 10 U thrombin (Sigma, St. Louis, Mo.) for 10 min at 37° C. The platelets were then washed and incubated with 10^−7 M fluorescein conjugated N-formyl peptide; fNLFNYK-fl (SEQ ID NO:1; Molecular Probes, Eugene, Oreg.) or 10^−7 M fluorescein conjugated non-N-formylated peptide; NLFNYK-fl (SEQ ID NO:2; New England Peptide, Fitchburg, Mass.) for 30 min at room temperature. […] Samples were analyzed on a Becton Dickinson (Franklin Lakes, N.J.) FASCcalibur/CELLQuest system. […]

human platelets [3] = assay: Platelet chemotaxis by transwell migration (ChemoTx microplate); type: cell-based; settings: for chemotaxis of thrombin-activated platelets toward peptide: 10^−6 and 10^−7 M peptide, 10 U thrombin, P<0.001
Method: The chemotactic activity of activated and non-activated platelets in response to different concentrations of fMLF by transwell migration (FIG. 4a) was determined. […] Both thrombin-activated and non-activated platelet migration followed a concentration-response curve that was greatest at 10^−6 M fMLF (27.2±12) in the thrombin-activated platelets and 10^−7 M fMLF (11.5±6.5) in the non-activated platelets (FIG. 4a). […] Next the dependence of platelet chemotaxis on the presence of a Formyl group on the peptide was tested. […] Non-activated platelets behaved similarly. Thus, the presence of a Formylgroup was essential for FPR binding, calcium mobilization and platelet chemotaxis.
Platelet migration was assessed using a 96-well ChemoTx® microplate (Neuro Probe, Gaithersburg Md.). For all chemotaxis experiments, different concentrations of stimulants were placed in the bottom wells of the microplate and the filter was positioned (2 μm pore size). The cell suspension was seeded onto the top of the filter (30 μl) and the microplates were incubated for 2 hrs at 37° C. For all chemokinesis experiments, different concentrations of stimulants were placed in the bottom wells of the microplate and the filter was positioned. The cell suspension containing different concentrations of stimulants were placed on the filter (30 μl) in a gradient fashion. After incubation, the lid was removed and the filter was gently wiped with a cell harvester and carefully flushed with media to remove any of the non-migrated cells. The filter was then carefully removed and the migrated cells were counted by light microscopy. Results are expressed as the mean value (±SD) of total migrated cells, in triplicate samples, and are taken from five experiments independent.
Chemotactic responses were distinguished from chemokinetic responses by placing increasing concentrations of fMLF in the upper and lower chambers of the transwell plates (Table 1).
There was no enhanced cell migration when higher concentrations of fMLF were present in the upper wells or with equal concentrations of fMLF in both the upper and lower wells, as would be seen with chemokinesis.
Different concentrations of fMLF were placed in the upper and/or lower wells of the chemotaxis plate; platelets at 10^6 cells/ml were placed on the upper filter. After a 2-hour incubation, the non-migrated cells were removed and the cells that migrated across the filter were counted. The results are expressed as the mean value (±SD) of the migrated cells in at least six separate experiments (n=24). Grey shading indicates wells containing a greater concentration of fMLF in the lower well compared to the upper well. Platelet migration in transwells maintaining a gradient of fMLF between chambers were compared with wells containing equimolar concentrations of fMLF in both chambers (p<0.002, Student's t-test)

[4] = target: T1, N-formyl peptide receptors on human platelets; assay: Confocal microscopy of fluorescein-conjugated peptide binding to human platelets; settings: 10^−6 M peptide; thrombin-activated platelets
Method: as §1
Platelet-rich plasma was prepared as mentioned above. Washed platelets were activated with either 1 or 10 U thrombin (Sigma) for 10 min at 37° C. The platelets were washed two times and fixed with 4% paraformaldehyde for 20 min at 4° C. The platelets were then washed and permeablized with 100% methanol for 15 min at 4° C. […] The platelets were washed two times, spun onto cover slips, and mounted with ProLong® Antifade Kit (Molecular Probes). Confocal images were collected on a Leica TCS-NT/SP confocal microscope (Leica Microsystems, Exton, Pa.) using a 100-x oil emersion objective NA 1.4, zoom 2. Representative images from three independent experiments are shown (FIG. 2).

Molecule: CCCCCCCCCCCCCC(=O)O[C@@H]1[C@@H](C)[C@@]2(O)[C@@H](C=C(CO)C[C@]3(O)C(=O)C(C)=C[C@@H]23)[C@@H]2C(C)(C)[C@]12OC(C)=O [PMA, phorbol 12-myristate 13-acetate]
- FPR and FPRL-1 mRNA expression after induced megakaryocyte differentiation (MEG-01 cells): transactivation of the genes encoding both the FPR and FPRL-1

Molecule: CN[C@@H]1C[C@H]2O[C@@](C)([C@@H]1OC)n1c3ccccc3c3c4c(c5c6ccccc6n2c5c31)C(=O)NC4 [STS, staurosporine]
- apoptotic cells after treatment (Hep-2 cells): 80%
- platelet calcium flux response to thrombin after incubation with STS (human platelets [1]; platelets incubated with STS directly): capable of subsequent calcium flux responses to thrombin

Molecule: For-[Nle]LF[Nle]YK [fNLFNYK-fl]
- binding of fluorescein-conjugated peptide to platelets by flow cytometry [2]: increased binding with increased thrombin activation
- chemotaxis of thrombin-activated platelets toward peptide (human platelets [3]): significantly more migration
- binding of fluorescein-conjugated peptide to platelets by confocal microscopy [4]: upregulation of external N-formyl peptide binding with platelet activation

Molecule: MLF: the non formyl peptide, MLF
- calcium signal (human platelets [1]): failed to elicit a calcium signal

Molecule: N-formyl-methionine-leucine-phenalanine [fMLF]
- calcium signal after pretreatment with thrombin (human platelets [1]; pretreatment with thrombin (1 U), then fMLF stimulation): greater fluorescent signal
- calcium signal (human platelets [1]): induced a calcium signal
- checkerboard analysis: chemotaxis versus chemokinesis (human platelets [3]; fMLF in upper and/or lower wells, 2-hour incubation): directed migration and not chemokinesis
- platelet migration, mean value (±SD) of migrated cells (human platelets [3]; non-activated platelets, 10^−7 M fMLF (greatest response)): 11.5±6.5
- platelet migration, mean value (±SD) of migrated cells (human platelets [3]; thrombin-activated platelets, 10^−6 M fMLF (greatest response)): 27.2±12

- binding of fluorescein-conjugated peptide to platelets by confocal microscopy [4]: no binding
Molecule: Nle-Leu-Phe-Nle-Tyr-Lys ([Nle]LF[Nle]YK-fluorescein) [NLFNYK-fl, fluorescein conjugated non-N-formylated peptide (New England Peptide)]
- binding of fluorescein-conjugated peptide to platelets by flow cytometry [2]: non-specific and did not increase with thrombin activation
- chemotaxis of thrombin-activated platelets toward peptide (human platelets [3]): failed to induce significant chemotaxis

Molecule: thrombin
- calcium signal (human platelets [1]): induced a calcium signal
